Results published in patent US12139486B2, “Octahydro fused azadecalin glucocorticoid receptor modulators” (Corcept Therapeutics, Inc., priority 2013, dated 2024).

Key:
human recombinant GR = target: T1, human recombinant GR (Homo sapiens, UniProt P04150); assay: Human Glucocorticoid Receptor (GR) Fluorescence Polarisation (FP) Binding Assay; details: Ki from IC50 by ligand depletion correction; displacement of Fluorome GS Red
T1 construct: purchased PanVera P2812
T1 sequence (P04150 1-777): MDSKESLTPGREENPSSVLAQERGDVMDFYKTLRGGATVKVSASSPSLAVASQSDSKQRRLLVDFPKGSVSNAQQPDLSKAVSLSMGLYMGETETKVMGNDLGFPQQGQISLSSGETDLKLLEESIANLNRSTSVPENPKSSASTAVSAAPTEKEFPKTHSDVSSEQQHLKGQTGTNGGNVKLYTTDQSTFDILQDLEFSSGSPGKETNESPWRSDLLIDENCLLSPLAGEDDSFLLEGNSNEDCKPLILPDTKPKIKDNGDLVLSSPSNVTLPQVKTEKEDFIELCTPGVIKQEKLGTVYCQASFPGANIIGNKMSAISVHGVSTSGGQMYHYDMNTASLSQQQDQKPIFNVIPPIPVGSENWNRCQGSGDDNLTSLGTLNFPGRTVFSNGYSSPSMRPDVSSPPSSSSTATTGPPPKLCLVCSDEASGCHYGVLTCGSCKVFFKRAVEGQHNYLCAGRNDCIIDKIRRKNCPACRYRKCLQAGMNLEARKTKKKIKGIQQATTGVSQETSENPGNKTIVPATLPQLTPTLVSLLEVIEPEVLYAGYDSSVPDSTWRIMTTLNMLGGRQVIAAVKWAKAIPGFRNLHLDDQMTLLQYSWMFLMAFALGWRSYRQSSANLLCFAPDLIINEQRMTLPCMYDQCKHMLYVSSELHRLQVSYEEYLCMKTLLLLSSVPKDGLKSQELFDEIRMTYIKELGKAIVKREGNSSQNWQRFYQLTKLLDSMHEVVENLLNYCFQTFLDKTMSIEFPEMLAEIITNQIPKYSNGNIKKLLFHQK
Protocol: The following is a description of a FP assay for measuring compound inhibition of labelled glucocorticoid binding to the human recombinant GR.
The binding affinity of test compounds was determined using a FP binding assay using human recombinant GR (PanVera P2812) and a fluorescent labelled glucocorticoid ligand (Fluorome GS Red) (PanVera P2894). The presence of inhibitors prevents the formation of a GS Red/GR complex resulting in a decrease in the measured polarisation value. The change in polarisation value in the presence of test compounds is used to calculate the binding affinity of the compound for GR.
This assay was performed in 384 well, black, round-bottom, polypropylene micro titre plates in a final volume of 20 μl. The assay contained 5 μl 1 nM GR (final concentration), 5 μl 0.5 nM Fluorome GS Red (final concentration) in the presence of 10p test compounds. Positive control wells (high polarisation) receive, 10 μl 2% (v:v) DMSO vehicle (1% (v/v) final concentration)+5 μl 1 nM GR and 5 μl 0.5 nM Fluorome GS Red. […] Assay blank background wells (used for normalisation) receive 15 μl 1×GS screening buffer+5 μl GR.
For the IC50 determination (concentration of compound that displaces 50% of the bound GS Red), compounds were tested at eight different concentrations in duplicate in two independently performed experiments. Compounds were prepared as solubilised solids at 10 mM in DMSO. On the day of assay, an 8 point half-log serial dilution (55 μl DMSO+25 μl compound solution) was prepared. A 1:50 dilution (1 μl compound solution+49 μl 1×GR screening buffer) was prepared for each compound. The compounds were prepared at 2× final assay concentration.
The plates were mixed and incubated for 4 hour at room temperature. FP was measured using an Envision Excite plate reader with 535 nm excitation and 590 nm emission interference filters.
Milli-polarisation (mP) values were calculated using the below equation: mP=1000*(S−G*P)/(S+G*P) where S and P are assay blank background subtracted fluorescence units, G=G-factor (1.07).
Compound IC50 values were calculated by plotting a [compound] v. % inhibition curve and fitting the data to a 4-parameter logistic fit equation.
10×GR screening buffer (100 mM potassium phosphate pH 7.4, 200 mM Na2MoO4, 1 mM EDTA, 20% (v/v) DMSO). To prepare 1×GR screening buffer, combine 1 ml 10×GR screening buffer (PanVera P2814)+1 ml stabilising peptide (PanVera P2815)+7.95 ml 4° C. MQ water. Add 50p 1M DTT, vortex and place on ice until use.

glucocorticoid receptor = target: T2, glucocorticoid receptor (Homo sapiens, UniProt P04150); assay: HepG2 Tyrosine Aminotransferase (TAT) Assay; format: cell-based
T2 construct: endogenous in cells; host or cells: HepG2
T2 sequence (P04150 1-777): T1 sequence (P04150 1-777)
Protocol: Glucocorticoid mediated activation of TAT occurs by transactivation of glucocorticoid response elements in the TAT promoter by glucocorticoid receptor-agonist complex.
HepG2 cells were cultured using MEME media supplemented with 10% (v/v) foetal bovine serum; 2 mM L-glutamine and 1% (v/v) NEAA at 37° C., 5%/95% (v/v) CO2/air.
Compounds were serially half log diluted in 100% (v/v) dimethylsulphoxide from a 10 mM stock.
HepG2 cells were then lysed with 30 μl of cell lysis buffer containing a protease inhibitor cocktail for 15 minutes at 4° C. […] After 2 hours incubation at 37° C. the reaction was terminated by the addition of 15 μl of 10 M aqueous potassium hydroxide solution, and the plates incubated for a further 30 minutes at 37° C.
[compound] and fitting the data to a 4 parameter logistic equation.

| Compound | Ki (human recombinant GR) | Ki (glucocorticoid receptor) |
| --- | --- | --- |
| CC(C)n1cc(S(=O)(=O)N2CC[C@H]3Cc4c(cnn4-c4ccc(F)cc4)C[C@]3(C(=O)c3ccccn3)C2)cn1 [Example 2AA, ((4aR,8aS)-1-(4-fluorophenyl)-6-((1-isopropyl-1H-pyrazol-4-yl)sulfonyl)-4,4a,5,6,7,8,8a,9-octahydro-1H-pyrazolo[3,4-g]isoquinolin-4a-yl)(pyridin-2-yl)methanone] | < 0.5 nM | 20 to 100 nM |
| CC(C)n1ncc(S(=O)(=O)N2CC[C@H]3Cc4c(cnn4-c4ccc(F)cc4)C[C@]3(C(=O)c3cscn3)C2)n1 [Example 2AJ, ((4aR,8aS)-1-(4-fluorophenyl)-6-((2-isopropyl-2H-1,2,3-triazol-4-yl)sulfonyl)-4,4a,5,6,7,8,8a,9-octahydro-1H-pyrazolo[3,4-g]isoquinolin-4a-yl)(thiazol-4-yl)methanone] | < 0.5 nM | < 20 nM |
| CCCn1nncc1S(=O)(=O)N1CC[C@H]2Cc3c(cnn3-c3ccc(F)cc3)C[C@]2(C(=O)c2nccs2)C1 [Example 2W, ((4aR,8aS)-1-(4-fluorophenyl)-6-((1-propyl-1H-1,2,3-triazol-5-yl)sulfonyl)-4,4a,5,6,7,8,8a,9-octahydro-1H-pyrazolo[3,4-g]isoquinolin-4a-yl)(thiazol-2-yl)methanone] | > 1 nM | > 100 nM |
| CCn1ncc(S(=O)(=O)N2CC[C@H]3Cc4c(cnn4-c4ccc(F)cc4)C[C@]3(C(=O)c3cc(C(F)(F)F)ccn3)C2)n1 [Example 2O, ((4aR,8aS)-6-((2-ethyl-2H-1,2,3-triazol-4-yl)sulfonyl)-1-(4-fluorophenyl)-4,4a,5,6,7,8,8a,9-octahydro-1H-pyrazolo[3,4-g]isoquinolin-4a-yl)(4-(trifluoromethyl)pyridin-2-yl)methanone] | 0.5 to 1 nM | < 20 nM |
| CCCn1cc(S(=O)(=O)N2CC[C@H]3Cc4c(cnn4-c4ccc(F)cc4)C[C@]3(C(=O)c3ccccn3)C2)cn1 [Example 2B, ((4aR,8aS)-1-(4-fluorophenyl)-6-((1-propyl-1H-pyrazol-4-yl)sulfonyl)-4,4a,5,6,7,8,8a,9-octahydro-1H-pyrazolo[3,4-g]isoquinolin-4a-yl)(pyridin-2-yl)methanone] | < 0.5 nM | < 20 nM |
| Cn1ncc(S(=O)(=O)N2CC[C@H]3Cc4c(cnn4-c4ccc(F)cc4)C[C@]3(C(=O)c3nccs3)C2)n1 [Example 2Y, ((4aR,8aS)-1-(4-fluorophenyl)-6-((2-methyl-2H-1,2,3-triazol-4-yl)sulfonyl)-4,4a,5,6,7,8,8a,9-octahydro-1H-pyrazolo[3,4-g]isoquinolin-4a-yl)(thiazol-2-yl)methanone] | > 1 nM | > 100 nM |
| CC(C)n1cc(S(=O)(=O)N2CC[C@H]3Cc4c(cnn4-c4ccc(F)cc4)C[C@]3(C(=O)c3ccccn3)C2)nn1 [Example 2AF, ((4aR,8aS)-1-(4-fluorophenyl)-6-((1-isopropyl-1H-1,2,3-triazol-4-yl)sulfonyl)-4,4a,5,6,7,8,8a,9-octahydro-1H-pyrazolo[3,4-g]isoquinolin-4a-yl)(pyridin-2-yl)methanone] | > 1 nM | 20 to 100 nM |
| O=C(c1nccs1)[C@]12Cc3cnn(-c4ccc(F)cc4)c3C[C@@H]1CCN(S(=O)(=O)c1ccc(C(F)(F)F)cc1)C2 [Example 2M, ((4aR,8aS)-1-(4-fluorophenyl)-6-((4-(trifluoromethyl)phenyl)sulfonyl)-4,4a,5,6,7,8,8a,9-octahydro-1H-pyrazolo[3,4-g]isoquinolin-4a-yl)(thiazol-2-yl)methanone] | > 1 nM | 20 to 100 nM |
| CC(C)n1ncc(S(=O)(=O)N2CC[C@H]3Cc4c(cnn4-c4ccc(F)cc4)C[C@]3(C(=O)c3nccs3)C2)n1 [Example 2Z, ((4aR,8aS)-1-(4-fluorophenyl)-6-((2-isopropyl-2H-1,2,3-triazol-4-yl)sulfonyl)-4,4a,5,6,7,8,8a,9-octahydro-1H-pyrazolo[3,4-g]isoquinolin-4a-yl)(thiazol-2-yl)methanone] | < 0.5 nM | 20 to 100 nM |
| CCn1nccc1S(=O)(=O)N1CC[C@H]2Cc3c(cnn3-c3ccc(F)cc3)C[C@]2(C(=O)c2cc(C(F)(F)F)ccn2)C1 [Example 2L, ((4aR,8aS)-6-((1-ethyl-1H-pyrazol-5-yl)sulfonyl)-1-(4-fluorophenyl)-4,4a,5,6,7,8,8a,9-octahydro-1H-pyrazolo[3,4-g]isoquinolin-4a-yl)(4-(trifluoromethyl)pyridin-2-yl)methanone] | > 1 nM | 20 to 100 nM |
| CCn1cc(S(=O)(=O)N2CC[C@H]3Cc4c(cnn4-c4ccc(F)cc4)C[C@]3(C(=O)c3cc(C(F)(F)F)ccn3)C2)cn1 [Example 2K, ((4aR,8aS)-6-((1-ethyl-1H-pyrazol-4-yl)sulfonyl)-1-(4-fluorophenyl)-4,4a,5,6,7,8,8a,9-octahydro-1H-pyrazolo[3,4-g]isoquinolin-4a-yl)(4-(trifluoromethyl)pyridin-2-yl)methanone] | 0.5 to 1 nM | 20 to 100 nM |
| O=C(c1cc(C(F)(F)F)ccn1)[C@]12Cc3cnn(-c4ccc(F)cc4)c3C[C@@H]1CCN(S(=O)(=O)c1cn[nH]n1)C2 [Example 2AE, ((4aR,8aS)-6-((2H-1,2,3-triazol-4-yl)sulfonyl)-1-(4-fluorophenyl)-4,4a,5,6,7,8,8a,9-octahydro-1H-pyrazolo[3,4-g]isoquinolin-4a-yl)(4-(trifluoromethyl)pyridin-2-yl)methanone] | > 1 nM | > 100 nM |
| O=C(c1ccccn1)[C@]12Cc3cnn(-c4ccc(F)cc4)c3C[C@@H]1CCN(S(=O)(=O)c1cccc(F)c1)C2 [Example 2F, ((4aR,8aS)-1-(4-fluorophenyl)-6-((3-fluorophenyl)sulfonyl)-4,4a,5,6,7,8,8a,9-octahydro-1H-pyrazolo[3,4-g]isoquinolin-4a-yl)(pyridin-2-yl)methanone] | > 1 nM | 20 to 100 nM |
| O=C(c1ccccn1)[C@]12Cc3cnn(-c4ccc(F)cc4)c3C[C@@H]1CCN(S(=O)(=O)c1ccc(C(F)(F)F)c(F)c1)C2 [Example 2U, ((4aR,8aS)-6-((3-fluoro-4-(trifluoromethyl)phenyl)sulfonyl)-1-(4-fluorophenyl)-4,4a,5,6,7,8,8a,9-octahydro-1H-pyrazolo[3,4-g]isoquinolin-4a-yl)(pyridin-2-yl)methanone] | > 1 nM | 20 to 100 nM |
| O=C(c1ccccn1)[C@]12Cc3cnn(-c4ccc(F)cc4)c3C[C@@H]1CCN(S(=O)(=O)c1cccc(C(F)(F)F)c1)C2 [Example 2G, ((4aR,8aS)-1-(4-fluorophenyl)-6-((3-(trifluoromethyl)phenyl)sulfonyl)-4,4a,5,6,7,8,8a,9-octahydro-1H-pyrazolo[3,4-g]isoquinolin-4a-yl)(pyridin-2-yl)methanone] | > 1 nM | 20 to 100 nM |
